This is an account of results in ChEMBL document CHEMBL2163313, “Shape-based reprofiling of FDA-approved drugs for the H₁ histamine receptor” (J Med Chem, 2012).

pIC50: −log10 of the molar value. The source made the active and inactive calls. The rule behind the calls is not given here.

Experiment [1] deals with Histamine H1 receptor (Rattus norvegicus, UniProt P31390). It counts as cell membranes, Sprague-Dawley, Brain, Membrane.
For experiment [2], the target named is T1, Histamine H1 receptor (Homo sapiens, UniProt P35367). The experiment can be described thus: Antagonist activity at histamine H1 receptor in human HeLa cells assessed as inhibition of histamine-induced Ca2+ release at 100 uM by using fura-2AM-based fluorescence assay. The experiment is classed as functional, cell-based.
T1 sequence (P35367 whole entry): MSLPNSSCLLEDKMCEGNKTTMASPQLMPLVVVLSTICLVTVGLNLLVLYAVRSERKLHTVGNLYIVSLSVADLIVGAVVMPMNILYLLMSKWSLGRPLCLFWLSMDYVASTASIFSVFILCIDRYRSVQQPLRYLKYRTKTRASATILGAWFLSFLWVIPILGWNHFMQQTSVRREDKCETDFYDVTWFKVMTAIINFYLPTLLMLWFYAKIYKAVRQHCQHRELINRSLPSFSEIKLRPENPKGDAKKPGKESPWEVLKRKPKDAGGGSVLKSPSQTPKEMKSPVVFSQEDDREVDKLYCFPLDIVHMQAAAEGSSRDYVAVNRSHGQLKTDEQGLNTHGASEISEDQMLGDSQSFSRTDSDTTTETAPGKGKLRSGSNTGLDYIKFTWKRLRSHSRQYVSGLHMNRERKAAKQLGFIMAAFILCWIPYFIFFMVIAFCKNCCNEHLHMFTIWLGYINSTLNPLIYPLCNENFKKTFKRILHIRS
The subject of experiment [3] is HeLa. The experiment can be described thus: Antagonist activity at P2Y receptor in human HeLa cells assessed as inhibition of ATP-induced Ca2+ release at 100 uM by using fura-2AM-based fluorescence assay. It counts as functional, cell-based.
In experiment [4] the target is T1, Histamine H1 receptor. The experiment is described as follows: Antagonist activity at H1 receptor in human HeLa cells assessed as inhibition of histamine-induced Ca2+ release by using fura-2AM-based fluorescence assay. It counts as functional, cell-based.

Chain of Histamine H1 receptor (Rattus norvegicus, UniProt P31390) (P31390 whole entry): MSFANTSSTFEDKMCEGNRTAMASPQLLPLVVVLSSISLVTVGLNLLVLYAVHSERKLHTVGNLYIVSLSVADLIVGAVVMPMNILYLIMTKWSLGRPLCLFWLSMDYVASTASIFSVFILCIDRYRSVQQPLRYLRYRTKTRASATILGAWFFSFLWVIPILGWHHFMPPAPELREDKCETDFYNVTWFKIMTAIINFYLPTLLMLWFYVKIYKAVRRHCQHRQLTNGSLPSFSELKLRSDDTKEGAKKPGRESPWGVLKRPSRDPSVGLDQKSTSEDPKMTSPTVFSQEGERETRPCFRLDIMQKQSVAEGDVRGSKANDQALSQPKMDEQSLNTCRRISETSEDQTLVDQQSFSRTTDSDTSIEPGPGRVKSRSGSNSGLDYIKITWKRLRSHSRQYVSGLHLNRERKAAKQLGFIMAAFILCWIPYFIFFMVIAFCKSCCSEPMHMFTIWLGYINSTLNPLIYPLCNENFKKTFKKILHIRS

In experiment [1], `CN(C)CC/C=C1/c2ccccc2Sc2ccc(Cl)cc21` [CHLORPROTHIXENE] gave a pIC50 of 8.97.

Take `OC(CCN1CCCCC1)(c1ccccc1)C1CC2C=CC1C2` (centres undefined): the inhibition result in experiment [2] and in experiment [3] was “Active” in each case. `CN1[C@@H](CC(=O)c2ccccc2)CCC[C@H]1C[C@H](O)c1ccccc1` [LOBELINE]: the negative logarithm of the IC50 (pIC50) in experiment [4] is 4.35; in experiment [1], 4.95. With `OC(CCN1CCCC1)(c1ccccc1)C1CCCCC1` (centres undefined) [PROCYCLIDINE], the pIC50 in experiment [1] is 5.17. Take `CCN(CC)CCOC(=O)C(c1ccccc1)c1ccccc1` [ADIPHENINE]: the pIC50 was 3.95 in experiment [4] and 4.77 in experiment [1]. On to `NC(=O)OCC(COC(N)=O)c1ccccc1`, for which the inhibition result in experiment [3] was “inactive”.

Broadly, the pIC50 is the negative decadic logarithm of the IC50, by convention in mol/L.
